We go through two molecules from US12275734B1, “Pleuromutilin onium salt derivative containing a 3H-imidazo[4,5-c]pyridine side chain, and a preparation method and application thereof” (SHAANXI UNIVERSITY OF SCIENCE AND TECHNOLOGY, priority 2024, dated 2025).

Converted amounts (≈) assume the structure as drawn. Like-named read-outs stand apart in the source and are kept apart here.

In one assay the test system is A. baumannii ATCC 19606. As to the kind of experiment: MIC, broth microdilution. In kind it is cell-based. The settings on record: Acinetobacter baumannii. Put shortly: (§1)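 Two-fold broth microdilution in MHB; inoculum 5×10^5 CFU/mL final, from log-phase cultures adjusted to 0.5 McFarland. Plates incubated 24 h at 37° C. Test compounds from 2560 μg/mL stock in 1% DMSO; drug-free negative control included.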
Background: In broth dilution the organism is exposed to a series of concentrations in liquid medium.

Another assay has as its system E. coli ATCC 25922. As to the kind of experiment: MIC, broth microdilution. The conditions noted are these: Escherichia coli. In kind it is cell-based. Put shortly:
as §1

Another assay relates to E.coli CMCC 44103. As to the kind of experiment: MIC, broth microdilution. In kind it is cell-based. The conditions noted are these: Escherichia coli. In short, it runs like this: as §1
For assay [1], the system named is Methicillin-resistant S. aureus ATCC 33591. Nature of the assay: MIC, broth microdilution. The format is cell-based. The settings on record: Staphylococcus aureus, ATCC 33591 / MRSA, read-out: Minimum inhibitory concentration MRSA^b. Put shortly: as §1
Assay [2] has as its system Methicillin-resistant S. epidermidis ATCC 51625. Nature of the assay: MIC, broth microdilution. In kind it is cell-based. The conditions noted are these: Staphylococcus epidermidis, ATCC 51625 / MRSE, read-out: Minimum inhibitory concentration MRSE^e. In short, it runs like this:
as §1

For another assay, the system named is S. aureus ATCC 29213. As to the kind of experiment: MIC, broth microdilution. In kind it is cell-based. The settings on record: Staphylococcus aureus. In short, it runs like this:
as §1

The test system of assay [3] is MRSA (ATCC 33591). As to the kind of experiment: Time-kill curve. The format is cell-based, S. aureus. The conditions noted are these: 1×MIC to 8×MIC, 0-24 hours. How it is done: Based on the MIC test results, the best performing active compounds were selected for time-kill curve studies.
(2) Sampling: At 0, 2, 4, 6, 8, 12, and 24 hours, aspirate 100 μL of the mixture
(3) Serial dilution and coating: Use 10 mM PBS buffer to dilute 10 times continuously, and evenly coat the diluted liquid on the agar plate
(4) Incubation and counting: Incubate in a 37° C. incubator for 24 hours and count the colonies.
(5) Sterilization curve drawing: Draw the curve of colony count change over time at different compound concentrations, and record the results as shown in FIG. 1.

Assay [4] relates to MRSA (ATCC 33591). As to the kind of experiment: Bacterial extracellular conductivity. The conditions noted are these: 1×MIC and 2×MIC, vs blank control. In kind it is cell-based, S. aureus. The source says: (§2) Changes in conductivity can reflect the permeability and integrity of the cell membrane. When the cell membrane is damaged or the permeability increases, the flow of ions inside and outside the cell will increase, resulting in an increase in conductivity. In the fields of biology and cell biology, conductivity measurements are often used to assess changes in cell membrane integrity.
(§3) MRSA and E. coli cells in the logarithmic growth phase were first resuspended after high-speed centrifugation and repeated PBS buffer washing and adjusted to the appropriate optical density. Next, different concentrations of compound i (1×MIC and 2×MIC) were added to the cell suspension, and a blank control group was set. All samples were incubated at 37° C. and sampled at set time points (0, 1, 2, 4, 6, and 8 hours). […] This series of operations helps to reveal the specific mechanism of action of compound i on bacterial growth and cell structure.

Assay [5] has as its system E. coli (ATCC 25922). Nature of the assay: Bacterial extracellular conductivity. The format is cell-based. The settings on record: 1×MIC and 2×MIC, vs blank control.
Source text: as §2, §3

In assay [6] the test system is E. coli (ATCC 25922). As to the kind of experiment: Bacterial cell morphology by FESEM. In kind it is cell-based. The settings on record: 4 hours. How it is done:
Observation of bacterial cell morphology using FESEM:
First, the bacterial suspension was adjusted to OD600=0.5, and then the bacteria were treated with compound i at a final concentration of 1×MIC and 4×MIC at 37° C. for 4 hours, and a control group without compound addition was set up. After treatment, the bacteria were collected by high-speed centrifugation at 6000 rpm for 10 minutes and washed three times with 10 mM PBS buffer to remove residual culture medium and drugs. Subsequently, the bacteria were fixed with 2.5% glutaraldehyde at 4° C. for 12 hours to maintain the integrity of the cell structure, and then washed again with PBS buffer three times to remove excess glutaraldehyde.
Next, the cells were subjected to a series of ethanol dehydration treatments (30%, 50%, 70%, 80%, 90% and 100% ethanol), and the treatment time of each concentration was sufficient to replace the intracellular water. After dehydration, the sample was resuspended in isoamyl acetate for 30 minutes and then centrifuged at 6000 rpm for 10 minutes to remove the supernatant. The sample was then dried and dotted on a stage with conductive glue, gold-plated to enhance the conductivity of the sample, and finally observed using a field emission scanning electron microscope (FESEM) to obtain high-resolution images of bacterial cell morphology and surface morphology. […]

`C=C[C@]1(C)C[C@@H](OC(=O)CSc2nc3cc[n+](Cc4ccc(C)cc4)cc3[nH]2)[C@]2(C)[C@H](C)CC[C@]3(CCC(=O)[C@H]32)[C@@H](C)[C@@H]1O` [Compound i, 5-(4-methylbenzyl)-2-((2-(((3aR,4R,5R,7S,8S,9R,9aS,12R)-8-hydroxy-4,7,9,12-tetramethyl-3-oxo-7-vinyldecahydro-4,9a-propancyclopenta[8]cyclo-5-yl)oxy)-2-oxoethyl)thio)-3H-imidazo[4,5-C]pyridine-5-ium]: the MIC in the assay with A. baumannii ATCC 19606 (ATCC19606, A. baumannii ATCC 19606, read-out: Minimum inhibitory concentration A.b.^f) came out at 0.25 mg/L; with E. coli ATCC 25922 (ATCC25922, E. coli ATCC 25922, read-out: Minimum inhibitory concentration E.c.^h), 0.125 mg/L; in the assay with E.coli CMCC 44103 (CMCC44103, E.coli CMCC 44103, read-out: Minimum inhibitory concentration E.c.^i), 0.125 mg/L; in assay [1] (Methicillin-resistant S. aureus ATCC 33591), 0.125 mg/L; in [2] (Methicillin-resistant S. epidermidis ATCC 51625), 0.0625 mg/L; in the assay on S. aureus ATCC 29213 (ATCC29213, S. aureus ATCC 29213, read-out: Minimum inhibitory concentration S.a.^d) it was 0.0625 mg/L. The “bactericidal efficiency (time-kill curve) compared with retapamulin” value in the assay with MRSA (ATCC 33591) [3] is recorded as “higher bactericidal efficiency”. Moreover, the extracellular conductivity entry in the assay with MRSA (ATCC 33591) [4] and in the assay on E. coli (ATCC 25922) [5] was “increased” in each case. For the same molecule, the “bacterial cell morphology (FESEM)” value in the assay on E. coli (ATCC 25922) [6] (1×MIC) was “depressions on the bacterial surface were observed”; with E. coli (ATCC 25922) [6] (4×MIC), “obvious wrinkles and shrinkage on the bacterial surface”.
Consider `C=C[C@]1(C)C[C@@H](OC(=O)CS[C@@H]2C[C@H]3CC[C@@H](C2)N3C)[C@]2(C)[C@H](C)CC[C@]3(CCC(=O)[C@H]32)[C@@H](C)[C@@H]1O` [Retapamulin, reference compound], for which the MIC is 4 mg/L (≈ 7.73 µM) with A. baumannii ATCC 19606 (ATCC19606, read-out: Minimum inhibitory concentration A.b.^f); 32 mg/L (≈ 61.8 µM) in the assay with E. coli ATCC 25922 (ATCC25922, read-out: Minimum inhibitory concentration E.c.^h); 32 mg/L (≈ 61.8 µM) in the assay with E.coli CMCC 44103 (CMCC44103, read-out: Minimum inhibitory concentration E.c.^i); 32 mg/L (≈ 61.8 µM) in assay [1]; 32 mg/L (≈ 61.8 µM) in assay [2]; 4 mg/L (≈ 7.73 µM) with S. aureus ATCC 29213 (ATCC29213, read-out: Minimum inhibitory concentration S.a.^d).
